In patent publication US8614170B2, “Method for treating fracturing water” (Schlumberger Technology Corporation, priority 2008, dated 2013):

Key:
[1] = test system: planktonic sulfate reducing bacteria; test: Efficacy of metabolic inhibitor for planktonic sulfate reducing bacteria (NACE standard TMO194-94 test method); assay type: cell-based; details: planktonic SRB, field mix water samples at 85 deg F. (29.4 deg C.), FIG. 1
Description: (§1) Efficacy of metabolic inhibitor for sulfate reducing bacteria was tested. NACE standard TMO194-94 test method was employed for testing the presence of general heterotrophic bacteria (GHB), acid producing bacteria (APB), and sulphate reducing bacteria (SRB) in field mix water samples at 85 deg F. (29.4 deg C.) containing different metabolic inhibitors and microbiocides: 100 ppm active or 200 ppm of calcium nitration solution and 125 ppm active glut or 500 ppm glut solution were used. In a first example, shown in FIG. 1, efficacy of metabolic inhibitor for planktonic sulfate reducing bacteria is tested. In a second example, shown in FIG. 2, efficacy of metabolic inhibitor for sessile sulfate reducing bacteria is tested.

[2] = test system: sessile sulfate reducing bacteria; test: Efficacy of metabolic inhibitor for sessile sulfate reducing bacteria (NACE standard TMO194-94 test method); assay type: cell-based, sulfate reducing bacteria (SRB)
Description: as §1

## calcium nitration solution [metabolic inhibitor]
[1]
  efficacy against sulfate reducing bacteria: kill and/or inhibit the growth
[2]; maximum effect after 28 days
  impact on sessile versus planktonic population: greater impact on the sessile bacteria population than the planktonic population
[2]; sessile SRB, field mix water samples at 85 deg F. (29.4 deg C.), FIG. 2
  efficacy against sulfate reducing bacteria: kill and/or inhibit the growth
